These results are taken from PMC2376372, “3-Bromophenyl 6-acetoxymethyl-2-oxo-2H-1-benzopyran-3-carboxylate inhibits cancer cell invasion in vitro and tumour growth in vivo” (British Journal of Cancer, 2003).

One may read the melting point as the temperature of the solid-liquid transition. A word on the inhibition: it is the relative decrease from the control value, in per cent.

Where two headings read alike, the source gives them in different places. A value given as a limit tells only on which side of the number the result lay.

For series [1], the system named is HT1080 fibrosarcoma cells. Briefly: Chemoinvasion assay, type IV collagen-coated Transwell inserts (Boyden chamber). It is filed as cell-based, human. Conditions: type IV collagen-coated filters; for inhibition of HT1080 cell invasion (chemoinvasion) / inhibition at 1 µM: 1 μM; for inhibition of HT1080 cell invasion (chemoinvasion): 48 h; for inhibition at 1 µM / inhibition at 10 µM: Homo sapiens, HT-1080, 48 h, read-out: inhibition of HT1080 cell invasion (chemoinvasion). The procedure: Plates (24-well) (Falcon, Becton-Dickinson, USA) and 6.5 mm polycarbonate filters (8 μm pore size) of Transwell cell culture chamber inserts (Costar, Netherlands) were coated with 100 μl of type IV collagen purified from human placenta diluted at 200 μg ml^−1 in phosphate-buffered saline (PBS). Coats were left to air-dry overnight in a laminar flow hood under UV light. Uniformity of the coating was assessed by Coomassie blue staining. Before use, coated plates and inserts were washed twice with water and incubated for at least 1 h in serum-free DMEM at 37°C ([Maquoi et al, 1999]).
(§1) HT1080 cells exponentially growing in T-75 flasks (Nunc, Costar, Netherlands) were collected by trypsin–ethylenediaminetetraacetic acid treatment, washed with serum-containing medium and allowed to recover from trypsinisation for at least 30 min at 37°C. Cells were then washed twice in serum-free DMEM and diluted in the same medium supplemented with 0.1% bovine serum albumin (BSA, fraction V, Sigma, USA) to a cell density of 6 × 10^5 cells ml^−1.
(§2) The influence of coumarin derivatives (0.1, 1 and 10 μM) on HT1080 cell invasion and migration was assayed using Transwell cell culture inserts (Costar) and compared to the reference compound GI 129471 (1 μM), an MMP inhibitor ([Wheeler et al, 1998]).
(§3) For chemoinvasion assays, type IV collagen-coated membranes (see above) were used, whereas uncoated membranes were employed for chemotaxis assays. Lower wells of chambers were filled with DMEM supplemented with 20% FCS and 1% BSA (fraction V, ICN) as chemoattractant, in the presence or absence of coumarin derivative (final concentration 0.1, 1 and 10 μM) or GI 129471 (final concentration 1 μM). Cells (6 × 10^4) suspended in DMEM supplemented with 0.1% BSA (fraction V, ICN) were seeded in the upper wells. Chambers were subsequently incubated for 48 and 4 h for chemoinvasion and chemotaxis assays, respectively, in a humid atmosphere at 37°C (in order to maintain a chemotactic gradient, media from both lower and upper wells were renewed after 24 h). After incubation, filters were removed from the chambers, fixed in 4% paraformaldehyde for 15 min (4°C), permeabilised for 10 min in methanol (−20°C) and stained with Giemsa (4%) for 15 min. The upper surface of the filters was scrapped with a cotton swab and cells having reached the lower surface of the filters were visually counted using a light microscope (Vanox AH3, Olympus, Hamburg, Germany) at 20-fold magnification. Each assay was performed in triplicate. Results were expressed as percentages (±s.d.) of the migration of control cells.

A further series concerns the target T1, HLE (Homo sapiens, UniProt P08246).
T1 construct: purchased Elastase Products Co
T1 sequence (P08246 30-267): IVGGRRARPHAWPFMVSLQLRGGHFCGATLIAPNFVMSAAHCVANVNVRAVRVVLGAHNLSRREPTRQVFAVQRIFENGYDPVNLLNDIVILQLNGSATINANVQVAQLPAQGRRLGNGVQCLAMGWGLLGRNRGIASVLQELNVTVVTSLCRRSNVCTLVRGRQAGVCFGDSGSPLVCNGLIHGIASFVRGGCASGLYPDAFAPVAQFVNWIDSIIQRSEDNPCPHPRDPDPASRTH
The conditions noted are these: cited from earlier work; for ki/KI or kobs/[I], HLE: pH 8.0, 25°C.

Another series concerns the target α-CT. Conditions: cited from earlier work; for ki/KI or kobs/[I], α-CT: pH 7.5, 25°C.
Series [2] has as its system HT1080 fibrosarcoma cells. In words: Chemotaxis assay, uncoated Transwell inserts. It is filed as cell-based, human. The conditions noted are these: 1 μM, 4 h, uncoated filters. The protocol:
as §1, §2, §3

The target of the next series is T2, Plasmin (Homo sapiens, UniProt P00747).
T2 construct: No; X′; α-CT; HLE; LMW-uPA; Plasmin; purchased Biogenic
In words: Inactivation of plasmin (preincubation method). It is filed as biochemical. The conditions noted are these: pH 7.5, read-out: ki/KI or kobs/[I], Plasmin. The protocol:
(§4) Bovine α-CT and LMW-uPA (MW=33 000 Da) were purchased from Sigma, HMW-uPA (MW=54 000 Da) from Choay, trypsin (TRY) and THR from Boehringer-Indelheim (Germany), and MMP-2 and MMP-9 from Calbiochem. Human leucocyte elastase and PM were from Elastase Products Co. and Biogenic, respectively. Except for THR, HMW-uPA, MMP-2 and MMP-9, enzyme concentrations were determined by active-site titrations using the appropriate titrant ([Bender et al, 1966]; [Chase and Shaw, 1970]; [Powers and Gupton, 1977]). […]
(§5) The kinetic parameters for the inhibition were determined either by the preincubation method for LMW-uPA and PM (small aliquots of the reaction mixture were withdrawn at intervals of time and the remaining activity determined), or by the progress curve method (HLE) when the inhibition was too fast to be measured accurately using the preincubation method. […]
(§6) At low inhibitor concentrations, the ratio ki/KI was obtained as kobs/[I]0. […] In the progress curve method, the substrate competes with the inhibitor and the kinetic parameters are determined as previously described ([Doucet et al, 1999]). […]

For a further series, the target named is T3, LMW-uPA (Homo sapiens, UniProt P00749).
T3 construct: Bovine α-CT and LMW-uPA (MW=33 000 Da) were purchased from Sigma; purchased Sigma
In words: Inactivation of LMW-uPA (preincubation method). It is filed as biochemical. The protocol: as §4, §5, §6

T2 sequence (P00747 581-810 limits assumed, species assumed): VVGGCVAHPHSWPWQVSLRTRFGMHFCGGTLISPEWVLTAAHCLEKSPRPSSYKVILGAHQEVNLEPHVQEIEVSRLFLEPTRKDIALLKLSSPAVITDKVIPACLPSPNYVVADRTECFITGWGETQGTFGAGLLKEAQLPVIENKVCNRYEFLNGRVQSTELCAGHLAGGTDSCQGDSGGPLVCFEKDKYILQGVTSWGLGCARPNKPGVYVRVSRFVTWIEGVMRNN
T2 sequence (P00747 97-580 partner limits assumed, species assumed): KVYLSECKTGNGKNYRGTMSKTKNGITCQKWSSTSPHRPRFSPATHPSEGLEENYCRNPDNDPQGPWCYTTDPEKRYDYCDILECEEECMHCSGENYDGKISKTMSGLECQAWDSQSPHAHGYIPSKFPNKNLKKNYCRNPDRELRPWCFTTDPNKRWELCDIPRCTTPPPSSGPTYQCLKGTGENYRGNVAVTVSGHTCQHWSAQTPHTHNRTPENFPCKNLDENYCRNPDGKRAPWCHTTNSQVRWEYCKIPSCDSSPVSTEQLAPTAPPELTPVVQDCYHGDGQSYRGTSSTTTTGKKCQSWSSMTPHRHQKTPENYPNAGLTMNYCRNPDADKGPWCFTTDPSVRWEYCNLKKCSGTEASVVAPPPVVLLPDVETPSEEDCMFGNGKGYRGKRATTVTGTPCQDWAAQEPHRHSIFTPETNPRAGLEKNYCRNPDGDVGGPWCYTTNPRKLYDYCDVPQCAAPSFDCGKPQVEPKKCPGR

On to `CC(=O)OCc1ccc2oc(=O)c(C(=O)Oc3cccc(I)c3)cc2c1` [compound 8], for which the melting point was 169 to 170 °C. Moreover, in series [1], the “inhibition of HT1080 cell invasion (chemoinvasion)” value is given as “quite similar to that observed with the reference compound”.

As to `Cc1ccc2oc(=O)c(C(=O)Oc3cccc(Cl)c3)cc2c1` [compound 2], on HLE (ref Pochet et al (2000)), the “ki/KI or kobs/[I], HLE” value is reported as 1100^a M^−1 s^−1. Moreover, the “ki/KI or kobs/[I], α-CT” value on α-CT (ref Pochet et al (2000)) is recorded as 9400^a M^−1 s^−1. Also, in series [1], the inhibition at 1 µM is 50% and the inhibition at 10 µM stood at 70%.

As to `CNC(=O)[C@H](Cc1ccccc1)NC(=O)[C@H](CC(C)C)[C@H](CSc1ccccc1)C(=O)NO` [GI 129471, reference compound], the “inhibition of HT1080 cell invasion (chemoinvasion)” value in series [1] is 60%. Moreover, the chemotaxis inhibition in series [2] is 30%; in series [2] (listed as reference compound), 20–30%.

In the case of `O=C(Oc1cccc(Cl)c1)c1cc2ccccc2oc1=O` [compound 1], the “ki/KI or kobs/[I], HLE” value at HLE (ref Pochet et al (2000)) is 610^a M^−1 s^−1. Besides, the “ki/KI or kobs/[I], α-CT” value at α-CT (ref Pochet et al (2000)) is recorded as <500^a M^−1 s^−1. Besides, in series [1], the inhibition at 1 µM was found to be 50% and the inhibition at 10 µM is 65%.

In the case of `CC(=O)OCc1ccc2oc(=O)c(C(=O)Oc3ccccc3)cc2c1` [compound 5], in series [1], the inhibition at 1 µM worked out at 30% and the inhibition at 10 µM fell in the range of 50 to 60%.

For `O=C(Oc1cccc(Cl)c1)c1cc2cc(CCl)ccc2oc1=O` [compound 3, 3-chlorophenyl 6-chloromethyl-2-oxo-2H-1-benzopyran-3-carboxylate], the “ki/KI or kobs/[I], HLE” value on HLE (ref Pochet et al (1996)) is 630^b M^−1 s^−1. Also, the “mode of inhibition of HLE” value at HLE (ref Pochet et al, 1996, 2000) is “transiently inactivated”. Further, the kinact/KI was 600 M⁻¹ s⁻¹ at Plasmin and 336 M⁻¹ s⁻¹ on LMW-uPA (pH 7.5, read-out: ki/KI or kobs/[I], LMW-uPA). For the same molecule, the “ki/KI or kobs/[I], α-CT” value at α-CT (ref Pochet et al (1996)) was 762700^b M^−1 s^−1. Moreover, in the series with α-CT (ref Pochet et al, 1996, 2000), the “mode of inhibition of α-CT” value is given as “suicide substrate leading to enzyme irreversible inhibition”. Also, the inhibition at 10 µM in series [1] amounted to 30%. Moreover, the “reactivation of inhibited LMW-uPA” value at LMW-uPA (spontaneously after 18 h incubation or after treatment with NH2OH (pH 7.5, 25°C)) is given as “No reactivation”.

Consider `CC(=O)OCc1ccc2oc(=O)c(C(=O)Oc3cccc(F)c3)cc2c1` [compound 6], for which the melting point fell in the range of 170 to 172 °C. For the same molecule, the inhibition at 1 µM in series [1] worked out at 80%.
